Patent publication US20200113852A1, “METHODS OF PATIENT SELECTION AND TREATING TRXR- OR PRDX-OVEREXPRESSED CANCERS” (TRIACT THERAPEUTICS, INC., priority 2017, published 2020)
Where two headings read alike, the source gives them in different places. Each block holds one molecule with its values, some of them ahead of it.

Key:
TrxR in MDA-MB-231 cells = test: Endogenous TrxR activity (DTNB reduction assay); type: cell-based, human; settings: GSH-depleted MDA-MB-231; iniparib 100 μM, Auranofin 1 μM, up to 4 h
Text: Initial velocities were derived from linear regression analyses and then plotted in double reciprocal plots to obtain the half time of TrxR inhibition using an one phase exponential decay analysis (Prism, GraphPad software).

[1] = system: Trx, JNK, p38MAPK, PARP in HCT116 cells; test: Cell death signaling western blots (Trx oxidation, phospho-JNK, phospho-p38MAPK, cleaved-PARP)
Experimental: Cells extracts were analyzed by SDS-PAGE either under reducing conditions or under non-reducing conditions in the case of Trx blot followed by blots anti-phospho-JNK, anti-phospho-p38MAPK, anti-cleaved-PARP and anti-Trx. Results are representative of three independent experiments.
After 2 h at 4° C., lysates were clarified by centrifugation and protein amounts were measured using the BCA assay (Pierce, Thermo scientific).
Equal amounts of proteins were resolved by SDS-PAGE under either non-reducing or reducing (5% 2-mercaptoethanol, 20 min at 60° C.) conditions, using 4-20% gels (Novex, Invitrogen), then subjected to semi-dry electrophoretic transfer onto nitrocellulose membranes.

TrxR in HCT116 cells = molecular target: T1, TrxR in HCT116 cells (Homo sapiens, UniProt Q16881); test: Endogenous TrxR activity in cell lysates (DTNB reduction assay); type: cell-based
T1 sequence (Q16881 1-649): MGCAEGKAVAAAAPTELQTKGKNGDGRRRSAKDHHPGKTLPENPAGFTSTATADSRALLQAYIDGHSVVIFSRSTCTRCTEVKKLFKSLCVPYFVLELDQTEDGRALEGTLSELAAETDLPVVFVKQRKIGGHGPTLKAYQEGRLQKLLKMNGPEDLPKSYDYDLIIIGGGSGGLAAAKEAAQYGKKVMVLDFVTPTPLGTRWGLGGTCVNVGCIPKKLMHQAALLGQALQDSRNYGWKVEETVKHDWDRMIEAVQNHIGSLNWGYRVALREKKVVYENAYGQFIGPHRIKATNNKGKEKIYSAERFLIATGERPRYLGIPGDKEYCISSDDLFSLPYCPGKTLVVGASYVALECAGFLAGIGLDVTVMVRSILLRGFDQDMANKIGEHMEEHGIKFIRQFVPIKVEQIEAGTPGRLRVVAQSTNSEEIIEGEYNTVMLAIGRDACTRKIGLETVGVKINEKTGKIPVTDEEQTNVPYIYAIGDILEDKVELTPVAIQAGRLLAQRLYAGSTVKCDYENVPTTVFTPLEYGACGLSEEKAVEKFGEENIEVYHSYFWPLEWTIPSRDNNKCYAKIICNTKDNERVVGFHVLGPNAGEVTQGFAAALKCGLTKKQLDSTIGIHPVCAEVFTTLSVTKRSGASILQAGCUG

[2] = system: TrxR1 and other protein targets in HCT116 cells; settings: GSH-depleted HCT116
Experimental: (§3) TrxR1 immunoprecipitates (FIG. 17A) and cells extracts (FIG. 17B) were analysed by SDS-PAGE under reducing conditions followed by streptavidin-HRP blot and TrxR1 blot.
(§4) Clarified octyl-glucoside lysates (12 mg proteins) were combined with anti-TrxR1 or anti-TrxR2 monoclonal antibody coupled to protein G plus agarose (Santa Cruz Biotechnology) and mixed overnight at 4° C. Beads were recovered by centrifugation for 2 min at 1,000×g and extensively washed in octyl-glucoside lysis buffer. Precipitated complexes were eluted by incubating the beads for 20 min at 60° C. in SDS sample buffer. The amount of immunoprecipitated TrxR1 and TrxR2 was systematically checked by blots anti-TrxR1 and anti-TrxR2, respectively.

[3] = molecular target: T2, TrxR1 and other protein targets in HCT116 cells (Homo sapiens, UniProt Q16881)
T2 sequence (Q16881 1-499 isoform Q16881-5): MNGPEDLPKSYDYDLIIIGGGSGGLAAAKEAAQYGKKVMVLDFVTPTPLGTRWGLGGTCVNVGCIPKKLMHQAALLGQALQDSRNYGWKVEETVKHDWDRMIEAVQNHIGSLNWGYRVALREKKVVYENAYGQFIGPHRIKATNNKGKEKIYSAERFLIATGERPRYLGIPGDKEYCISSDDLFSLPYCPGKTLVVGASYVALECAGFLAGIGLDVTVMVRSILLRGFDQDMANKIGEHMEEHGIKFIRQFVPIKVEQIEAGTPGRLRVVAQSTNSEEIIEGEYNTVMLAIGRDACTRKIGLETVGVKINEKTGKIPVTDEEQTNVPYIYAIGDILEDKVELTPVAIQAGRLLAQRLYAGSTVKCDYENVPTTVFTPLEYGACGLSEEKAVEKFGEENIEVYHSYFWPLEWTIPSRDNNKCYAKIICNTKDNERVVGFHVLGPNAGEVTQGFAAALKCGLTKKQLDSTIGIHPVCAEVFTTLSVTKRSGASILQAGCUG
Experimental: as §3, §4

[4] = system: GSH in HCT116 and MDA-MB-453 cell lines; test: GSH depletion with BSO (GSH-Glo glutathione assay); type: cell-based, human; settings: 1 mM BSO for 18 h, both cell lines
Experimental: Cells were seeded (96 well plates) at increasing densities, the highest density corresponding to that used for viability studies. […] GSH amount was measured thereafter using GSH-Glo™ glutathione assay.

HCT116 cells = test: Iniparib metabolites release, XLC-MS/MS of incubation media; type: in vitro ADME, human; design: unit not given beside the values
Experimental: (§1) Online solid phase extraction (SPE) was performed using the fully automated Spark Holland Symbiosis™ (Emmen, The Netherlands) in eXtraction Liquid Chromatography (XLC) mode. The Symbiosis™ has previously been described in detail (18). HySphere™ C18 HD 7 μm SPE cartridges were used (Spark Holland). Each cartridge was initially conditioned with 2 ml methanol+0.5% formic acid (FA) and then equilibrated with 2 ml water+0.5% FA, both at flow-rates of 4 ml/min. Sample (25 μl) was aspirated and loaded onto the cartridge with 1 ml water+0.5% FA at a flow-rate of 1 ml/min. […] After elution, the right clamp was washed successively with 2 ml water+0.5% FA, 2 ml methanol+0.5% FA and 2 ml water+0.5% FA at 4 ml/min. […] The mobile phase composition was returned to starting conditions over 1 min and maintained during 6 min for column equilibration. The total run time was 27 min. Mass spectrometry was performed using the Thermo® TSQ Quantum Discovery Max in electrospray positive ionization mode (Thermo, US) with the following parameters: capillary voltage=4.0 kV, capillary temperature=300° C., sheath gas pressure=40, auxiliary gas pressure=5.
(§2) All values are expressed as means±SEM of three independent experiments. ND., non detectable.

MDA-MB-453 cells = test: as above; type: in vitro ADME, human; design: unit not given beside the values
Experimental: as §1, §2

[5] = Phase I clinical trial GBM, pharmacokinetics; type: in vivo, human; settings: for Metabolite/iniparib concentration ratio: arithmetic average±SD; for Cmax: geometric mean±SD, plasma
Text: No cytochrome P450-inducing anticonvulsants. However, Gliadel was permitted.
Dosing is IV 2×/week continuous.

[6] = molecular target: T3, human recombinant glutathione S-transferase pi (GSTP1) (Homo sapiens, UniProt P09211); test: In vitro Iniparib-glutathione conjugation; type: biochemical; settings: 30 μM, 1 mM GSH, absence of GSTP1
T3 construct: purchased Acris
Experimental: as §1

[7] = system: several cancer cell lines; test: Cytotoxic activity on several cancer cell lines (preliminary screening); settings: all cell lines
recombinant human GAPDH = molecular target: T4, recombinant human GAPDH (Homo sapiens, UniProt P04406); test: In vitro modification of GAPDH by Iniparib and I-NOBA; type: binding
T4 construct: purchased Acris
Experimental: For biochemical analysis, recombinant human GAPDH (Acris) was first reduced by a 15,000-fold excess of DTT at 56° C. for 30 min, the reducing agent being removed thereafter by chloroform/methanol precipitation. […] Afterwards the samples were submitted or not to another reducing step with 25 mM DTT (56° C., 30 min), and after removal of DTT by chloroform/methanol precipitation, biotinylation of free cysteine sulfhydryl groups of GAPDH was performed with HPDP-biotin (N-[6-(Biotinamido)hexyl]-3′-(2′-pyridyldithio)propionamide) at […] for 2 h at 20° C.
Sample mixtures were then reduced or not with 25 mM DTT (56° C., 30 min). Intact molecular weights were measured by mass spectrometry. Liquid chromatography-electrospray ionization mass spectrometry (LC/MS) was carried out using LTQ-Orbitrap Elite mass spectrometer (Thermo Fisher Scientific) coupled to a Famos Autosampler and an Ultimate Pump (LC-Packing, Dionex). Reverse phase chromatography was performed with a binary buffer system consisting of 0.2% formic acid (buffer A) and 80% acetonitrile in 0.2% formic acid (buffer B). After dilution to 1 pmole/μl in 0.2% formic acid, 1 μl of samples were loaded on a Poros 1 R/H column (75 μm×15 cm, Dionex). […] Mass spectra (m/z 500-2,000) were acquired in the positive ITMS mode with 5 μscans accumulation, a target value of 30,000 and a maximum injection time of 100 ms. The acquired raw files were converted in MassLynx format (Waters) using an home-made program and then were deconvoluted using MaxEnt software (Waters).

[8] = HCT116 w BSO, 1 h after 100 μM Iniparib
[9] = HCT116 w BSO, 5 h after 100 μM Iniparib
[10] = HCT116 w BSO, 24 h after 100 μM Iniparib
[11] = MDA-MB-453 w BSO, 1 h after 100 μM Iniparib
[12] = MDA-MB-453 w BSO, 5 h after 100 μM Iniparib
[13] = MDA-MB-453 w BSO, 24 h after 100 μM Iniparib
[14] = MDA-MB-453 w/o BSO, 24 h after 100 μM Iniparib

T4 sequence (P04406 whole entry): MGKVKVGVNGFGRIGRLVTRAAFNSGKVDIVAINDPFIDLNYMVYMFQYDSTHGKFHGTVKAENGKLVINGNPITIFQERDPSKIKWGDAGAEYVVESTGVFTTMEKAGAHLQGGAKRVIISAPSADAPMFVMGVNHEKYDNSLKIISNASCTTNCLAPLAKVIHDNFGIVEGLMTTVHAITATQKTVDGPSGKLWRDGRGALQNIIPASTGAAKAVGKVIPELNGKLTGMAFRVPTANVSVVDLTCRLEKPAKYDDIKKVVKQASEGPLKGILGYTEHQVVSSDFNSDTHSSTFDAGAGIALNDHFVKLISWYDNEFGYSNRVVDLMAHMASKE
T3 sequence (P09211 whole entry): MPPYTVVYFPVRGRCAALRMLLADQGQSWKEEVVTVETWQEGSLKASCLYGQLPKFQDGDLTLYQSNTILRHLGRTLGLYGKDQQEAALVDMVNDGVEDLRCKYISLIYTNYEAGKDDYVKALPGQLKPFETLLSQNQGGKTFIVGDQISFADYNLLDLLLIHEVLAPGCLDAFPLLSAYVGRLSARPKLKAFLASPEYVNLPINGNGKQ

SMILES: CC(=O)OC[C@H]1O[C@@H]([S-])[C@H](OC(C)=O)[C@@H](OC(C)=O)[C@@H]1OC(C)=O.CCP(CC)CC.[Au+] [Auranofin]
TrxR reductase activity (TrxR in MDA-MB-231 cells): inhibition of the reductase activity
p38MAPK and JNK phosphorylation ([1]; GSH-depleted HCT116, 7 h or 24 h): JNK and p38MAPK activation
inhibition of TrxR activity (TrxR in HCT116 cells; 1 μM, immediately after adding the compound to the cells): inhibited almost completely
IC50 (TrxR in HCT116 cells; 4 h treatment, BSO-pretreated HCT116): 70 nM
concentration inhibiting all adduct formation with Iniparib-biotin [2]: 1 to 3 µM
TrxR1 labeling with Iniparib-biotin after preincubation ([3]; 90-min preincubation of GSH-depleted HCT116 (auranofin 10 μM or Iniparib 100 μM)): abolished
concentration preventing Iniparib-biotin labeling of the 55-kDa protein attributed to TrxR ([3]; GSH-depleted HCT116): 0.1 to 0.3 µM

SMILES: CCCCS(=N)(=O)CCC(N)C(=O)O [BSO, L-buthionine sulfoximine]
GSH content [4]: below 5 % of controls

SMILES: NC(=O)c1ccc(I)c(N)c1 [I-ABM, 4-iodo-3 aminobenzamide]
Iniparib and metabolites in incubation media (HCT116 cells; [8]): 0.3 ± 0.1
Iniparib and metabolites in incubation media (HCT116 cells; [9]): 1.1 ± 0.3
Iniparib and metabolites in incubation media (HCT116 cells; [10]): 4.4 ± 1.2
Iniparib and metabolites in incubation media (HCT116 cells; HCT116 w/o BSO, 1 h after 100 μM Iniparib): 0.2 ± 0.1
Iniparib and metabolites in incubation media (HCT116 cells; HCT116 w/o BSO, 5 h after 100 μM Iniparib): 0.4 ± 0.1
Iniparib and metabolites in incubation media (HCT116 cells; HCT116 w/o BSO, 24 h after 100 μM Iniparib): 0.5 ± 0.2
Iniparib and metabolites in incubation media (MDA-MB-453 cells; [11]): 0.3 ± 0.1
Iniparib and metabolites in incubation media (MDA-MB-453 cells; [12]): 1.4 ± 0.1
Iniparib and metabolites in incubation media (MDA-MB-453 cells; [13]): 5.4 ± 0.2
Iniparib and metabolites in incubation media (MDA-MB-453 cells; MDA-MB-453 w/o BSO, 1 h after 100 μM Iniparib): 0.2 ± 0.0
Iniparib and metabolites in incubation media (MDA-MB-453 cells; MDA-MB-453 w/o BSO, 5 h after 100 μM Iniparib): 0.5 ± 0.2
Iniparib and metabolites in incubation media (MDA-MB-453 cells; [14]): 2.6 ± 0.2
Metabolite/iniparib concentration ratio ([5]; 5.1 mg/kg): 1.1 ± 0.6%
Metabolite/iniparib concentration ratio ([5]; 6.1 mg/kg): 0.9 ± 0.6%
Metabolite/iniparib concentration ratio ([5]; 6.8 mg/kg): 1.1 ± 0.9%
Metabolite/iniparib concentration ratio ([5]; 8.0 mg/kg): 0.3 ± 0.1%
Metabolite/iniparib concentration ratio ([5]; 8.6 mg/kg): 0.8 ± 0.6%
Metabolite/iniparib concentration ratio ([5]; 9.5 mg/kg): 0.8 ± 0.6%
Cmax ([5]; human, 5.1 mg/kg IV 2×/week, read-out: Cmax): 5.7 ± 4.1 ng/mL
Cmax ([5]; human, 6.1 mg/kg IV 2×/week, read-out: Cmax): 7.2 ± 1.8 ng/mL
Cmax ([5]; human, 6.8 mg/kg IV 2×/week, read-out: Cmax): 8.4 ± 3.7 ng/mL
Cmax ([5]; human, 8.0 mg/kg IV 2×/week, read-out: Cmax): 10.3 ± 2.9 ng/mL
Cmax ([5]; human, 8.6 mg/kg IV 2×/week, read-out: Cmax): 9.7 ± 2.4 ng/mL
Cmax ([5]; human, 9.5 mg/kg IV 2×/week, read-out: Cmax): 13.6 ± 5.3 ng/mL

Iniparib and metabolites in incubation media (HCT116 cells; [10]): 0.1 ± 0.0
SMILES: NC(=O)c1ccc(I)c(NO)c1 [I-HABM]

SMILES: NC(=O)c1ccc(I)c(N=O)c1 [I-NOBA]
reaction with GSH [6]: reacted with GSH
Iniparib and metabolites in incubation media (HCT116 cells; [8]): 4.4 ± 0.0
Iniparib and metabolites in incubation media (HCT116 cells; [9]): 14.6 ± 0.1
Iniparib and metabolites in incubation media (HCT116 cells; [10]): 26.5 ± 2.9
Iniparib and metabolites in incubation media (MDA-MB-453 cells; [11]): 0.6 ± 0.1
Iniparib and metabolites in incubation media (MDA-MB-453 cells; [12]): 3.5 ± 0.7
Iniparib and metabolites in incubation media (MDA-MB-453 cells; [13]): 2.9 ± 1.0
Iniparib and metabolites in incubation media (MDA-MB-453 cells; [14]): 0.2 ± 0.1
cytotoxic activity relative to Iniparib [7]: more active than Iniparib
covalent modification of GAPDH (MS analysis) (recombinant human GAPDH; purified GAPDH incubated with compound): formation of protein adducts
blocking of free thiol groups in GAPDH (recombinant human GAPDH; purified GAPDH, biotin-HPDP labeling, streptavidin-HRP blot): completely blocked

SMILES: Nc1cc(C(=O)O)ccc1I [IABA]
Cmax ([5]; 5.1 mg/kg IV 2×/week): 16.6 ± 5.2 ng/mL
Metabolite/iniparib concentration ratio ([5]; 5.1 mg/kg): 3.0 ± 2.0%
Cmax ([5]; 6.1 mg/kg IV 2×/week): 14.9 ± 8.3 ng/mL
Metabolite/iniparib concentration ratio ([5]; 6.1 mg/kg): 2.0 ± 1.5%
Cmax ([5]; 6.8 mg/kg IV 2×/week): 19.9 ± 6.6 ng/mL
Metabolite/iniparib concentration ratio ([5]; 6.8 mg/kg): 2.4 ± 1.4%
Cmax ([5]; 8.0 mg/kg IV 2×/week): 14.5 ± 15.0 ng/mL
Metabolite/iniparib concentration ratio ([5]; 8.0 mg/kg): 0.7 ± 0.7%
Cmax ([5]; 8.6 mg/kg IV 2×/week): 31.5 ± 10.4 ng/mL
Metabolite/iniparib concentration ratio ([5]; 8.6 mg/kg): 2.5 ± 1.4%
Cmax ([5]; 9.5 mg/kg IV 2×/week): 19.8 ± 14.0 ng/mL
Metabolite/iniparib concentration ratio ([5]; 9.5 mg/kg): 2.0 ± 2.0%

SMILES: CN[C@@H]1C[C@H]2O[C@@](C)([C@@H]1OC)n1c3ccccc3c3c4c(c5c6ccccc6n2c5c31)C(=O)NC4 [staurosporine, reference compound]
PARP1 cleavage ([1]; GSH-depleted HCT116): triggered PARP1 cleavage
Trx oxidation ([1]; GSH-depleted HCT116, 7 h or 24 h, 100 μM Iniparib, 1 μM Auranofin, 100 nM Staurosporin): unable to induce oxidation of Trx
